According to US12181409B2, “Cell imaging composition and cellular material imaging method using same” (EWHA UNIVERSITY-INDUSTRY COLLABORATION FOUNDATION, priority 2019, dated 2024):

What was measured:
[1] = test system: mitochondria in HeLa cells; assay: Colocalization of Compound 1 with MitoTracker Deep Red, confocal microscopy; type: cell-based; conditions: 10 μM Compound 1 and 50 nM MitoTracker Deep Red, 30 minutes
Experimental: FIGS. 10A to 10C show fluorescence images of mitochondria in a cell by Compound 1 (excitation at 405 nm/emission at 490 nm to 590 nm) (FIG. 10A), Mitotracker Deep Red (excitation at 635 nm/emission at 655 nm to 755 nm) (FIG. 10B), and Compound 1 and Mitotracker Deep Red merged (FIG. 10C), respectively, acquired by confocal microscopy after HeLa cells were incubated with 10 μM Compound 1 and 50 nM Mitotracker Deep Red for 30 min, according to an example of the present disclosure.
Referring to FIGS. 10A to 10E, HeLa cells were incubated with 10 μM Compound 1 and 50 nM MitoTracker Deep Red for 30 minutes and a fluorescent image of the mitochondria in the cells was obtained by confocal microscopy.

HSA [2] = target: T1, HSA (Homo sapiens, UniProt P02768); assay: Fluorescent imaging of various proteins; type: biochemical; conditions: 3 μM Compound 1, various proteins in DMSO, 0.5 hours and 1.5 hours
T1 sequence (P02768 25-609): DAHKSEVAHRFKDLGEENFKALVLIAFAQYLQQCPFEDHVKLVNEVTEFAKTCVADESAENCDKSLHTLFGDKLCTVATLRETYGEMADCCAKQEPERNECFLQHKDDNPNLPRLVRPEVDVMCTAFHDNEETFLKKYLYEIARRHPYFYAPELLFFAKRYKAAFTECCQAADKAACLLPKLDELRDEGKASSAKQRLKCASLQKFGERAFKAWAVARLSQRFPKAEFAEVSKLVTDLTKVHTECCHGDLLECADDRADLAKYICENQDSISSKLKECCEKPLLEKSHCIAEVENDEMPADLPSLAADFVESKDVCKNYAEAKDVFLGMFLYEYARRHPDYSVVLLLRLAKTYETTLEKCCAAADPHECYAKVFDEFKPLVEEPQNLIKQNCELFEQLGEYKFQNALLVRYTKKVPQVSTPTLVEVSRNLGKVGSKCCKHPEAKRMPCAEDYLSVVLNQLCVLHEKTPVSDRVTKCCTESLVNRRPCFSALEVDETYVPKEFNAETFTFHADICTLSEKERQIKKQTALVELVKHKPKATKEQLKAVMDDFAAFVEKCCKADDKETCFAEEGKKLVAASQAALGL
Experimental: FIGS. 14D(i) to 14D(vi) show fluorescence imaging of proteins measured after incubating 3 μM Compound 1 with various proteins in DMSO for 0.5 hours and 1.5 hours, respectively (λex=410 nm), according to an example of the present disclosure.
After 3 μM Compound 1 and various types of proteins in DMSO were incubated for 0.5 hours and 1.5 hours, fluorescence intensity profiles and fluorescent images depending on the types of proteins were compared.

HeLa cells [3] = assay: Cytotoxicity test (MTT); type: cell-based; conditions: 30 μM Compound 1, 24 hours, MTT 4 hours, untreated sample = 100%
Experimental: Referring to FIG. 13, HeLa cells were treated with various concentrations of Compound 1 for 24 hours, cultured in a medium containing MTT for 4 hours, and then the viability of the cells depending on the concentration of Compound 1 was checked. When the absorbance of a sample not treated with Compound 1 was set to 100%, it was confirmed that the cells treated with 30 μM Compound 1 survived about 80%.

HeLa cells [4] = assay: Colocalization of Compound 1 with ER-Tracker Red, confocal microscopy; type: cell-based; conditions: 10 μM Compound 1 and 1 μM ER-Tracker Red, 30 minutes
Experimental: FIGS. 11A to 11C show fluorescence images of mitochondria in a cell by Compound 1 (excitation at 405 nm/emission at 490 nm to 590 nm) (FIG. 11A), ER(endoplasmic reticulum)-tracker Red (excitation at 559 nm/emission at 576 nm to 675 nm) (FIG. 11B), and Compound 1 and ER-tracker Red merged (FIG. 11C), respectively, acquired by confocal microscopy after HeLa cells were incubated with 10 μM Compound 1 and 1 μM ER-tracker Red for 30 min, according to an example of the present disclosure.
Referring to FIGS. 11A to 11C, HeLa cells were incubated with 10 μM Compound 1 and 1 μM ER-Tracker Red for 30 minutes and a fluorescent image of the mitochondria in the cells was obtained by confocal microscopy.

HSA [5] = target: T1, HSA; assay: Fluorescent imaging of HSA protein at various pH values; type: biochemical; conditions: buffer solutions at pH 7.4, pH 7.5 and pH 8.5
Experimental: After Compound 1 and HSA protein were incubated in buffer solutions at various pH values, fluorescence intensity profiles and fluorescent images depending on pH were compared.

O=C(c1ccccc1)c1ccccc1NCc1ccccc1B(O)O [Compound 1]
Pearson correlation coefficient [1]: 0.81±0.02
degree of agreement of fluorescent image [1]: about 81%
fluorescent imaging performance and selectivity among proteins (HSA [2]): fluorescent imaging performance and selectivity specific to HSA
cell viability (survival) (HeLa cells [3]): about 80%
Pearson correlation coefficient (HeLa cells [4]): 0.85±0.01
degree of agreement of fluorescent image (HeLa cells [4]): about 85%
fluorescent imaging performance for HSA depending on pH (HSA [5]): fluorescent imaging performance specific to HSA protein
